Earlier results in US20100092397A1, “Method For Treatment of COPD and Other Pulmonary Diseases” (Activaero GmbH, priority 2008, published 2010).

Columns and labels:
[1] = test system: subjects with moderate-severe COPD; conditions: nebulized ADC4022 12.5 mg twice daily plus budesonide 1 mg twice daily for 4 weeks, versus placebo plus budesonide
[2] = systemic (oral or i.v.) administration; levels above this range result in side effects

Structure (SMILES) | lung function [1] | recommended effective range, plasma level [2]
Cn1c(=O)c2[nH]cnc2n(C)c1=O [ADC4022] | stable | 
Cn1c(=O)c2[nH]cnc2n(C)c1=O [Theophylline, theophylline] |  | 10 to 20 mg/L
